The source of these data is patent US20240059703A1 (AMGEN INC., priority 2021, published 2024).

Usually IC50 stands for the midpoint of a concentration-inhibition curve.

In assay [1] the test system is MIA PaCa-2 (human pancreatic carcinoma) cells. In words: Cell Viability Assay (CellTiter-Glo), MIA PaCa-2. As to conditions: Homo sapiens, MIA PaCa-2, 72 h. The assay is classed as cell-based. The protocol: Serially-diluted compound or DMSO was added to the cells, and plates were incubated at 37° C., 5% CO2 for 72 h. Cell viability was measured using a CellTiter-Glo® Luminescent Cell Viability Assay kit (Promega) according to the manufacturer's protocol. The luminescence signal of treated samples was normalized to DMSO control, and data were analyzed using a 4-parameter logistic model to calculate IC50 values.
Background: In ATP-based viability assays light output follows the ATP content of the culture.

The subject of assay [2] is A549 (human lung carcinoma) cells. In words: Cell Viability Assay (CellTiter-Glo), A549. The class given is cell-based. As to conditions: Homo sapiens, A549, 72 h. Put shortly: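 Cells grown in RPMI 1640 with 10% FBS were seeded at 1.67E+04 cells/mL and left overnight at 37° C., 5% CO2. They were then exposed to serially diluted compound for 72 h, after which CellTiter-Glo luminescence was read, normalized to DMSO, and fitted to a 4-parameter logistic model for IC50.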

The next assay deals with KRAS G12C (Homo sapiens (Human), UniProt P01116, C118A/G12C). Briefly: 2 h coupled exchange assay. The class given is biochemical. To be noted: Avg 2 h Coupled exchange IC50, 2 h compound pre-incubation, SOS-mediated nucleotide exchange. How it is done:
The term “2 h coupled exchange assay” or “20 h coupled exchange assay” as used herein refers to the assay described in the Section entitled “BIOLOGICAL EVALUATION.”

SMILES strings stand for the structures.

Chain of KRAS G12C (P01116 other isoform, or with tags, fused parts or gaps G12C/C118A): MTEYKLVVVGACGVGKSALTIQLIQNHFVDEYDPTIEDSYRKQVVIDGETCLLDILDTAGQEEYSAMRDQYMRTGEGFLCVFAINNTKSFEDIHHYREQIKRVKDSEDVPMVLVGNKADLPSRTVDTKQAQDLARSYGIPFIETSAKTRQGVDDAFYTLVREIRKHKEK

Take `C=CC(=O)N1CC2(CCN(c3nc4c(c(-c5cc(O)ccc5Cl)n3)CCCC4)C2)C1` [Example 1-18, 1-(6-(4-(2-chloro-5-hydroxyphenyl)-5,6,7,8-tetrahydro-2-quinazolinyl)-2,6-diazaspiro[3.4]octan-2-yl)-2-propen-1-one]: the IC50 amounted to 8.67 µM in assay [1], 9.46 µM in assay [2] and 8.46 µM at KRAS G12C.
Turning to `C=CC(=O)N1CC2(CCN(c3nc4c(c(-c5cccc6cc(O)ccc56)n3)CCCC4)C2)C1` [Example 1-21, 1-(6-(4-(6-hydroxy-1-naphthalenyl)-5,6,7,8-tetrahydro-2-quinazolinyl)-2,6-diazaspiro[3.4]octan-2-yl)-2-propen-1-one], the IC50 was > 5 µM in assay [1], > 5 µM in assay [2] and 0.435 µM at KRAS G12C.
Turning to `C=CC(=O)N1CC2(CCN(c3nc(-c4cc(O)cc5ccccc45)c4ncc(C)cc4n3)C2)C1` [Example 1-22, 1-(6-(4-(3-hydroxy-1-naphthalenyl)-7-methylpyrido[3,2-d]pyrimidin-2-yl)-2,6-diazaspiro[3.4]octan-2-yl)-2-propen-1-one], the IC50 in assay [1] was 4.26 µM; in assay [2], > 25 µM; on KRAS G12C, 1.14 µM.
For the compound `C=CC(=O)N1CC2(CCN(c3nc4c(c(-c5cccc6sc(N)nc56)n3)CCCC4)C2)C1` [Example 1-23, 1-(6-(4-(2-amino-1,3-benzothiazol-4-yl)-5,6,7,8-tetrahydro-2-quinazolinyl)-2,6-diazaspiro[3,4]octan-2-yl)-2-propen-1-one], the IC50 in assay [1] is 5.27 µM; in assay [2], 10.5 µM; against KRAS G12C, 1.22 µM.
With `C=CC(=O)N1CC2(CCN(c3nc4c(c(-c5cccc(Cl)c5Cl)n3)CCCC4)C2)C1` [Example 1-24, 1-(6-(4-(2,3-dichlorophenyl)-5,6,7,8-tetrahydro-2-quinazolinyl)-2,6-diazaspiro[3.4]octan-2-yl)-2-propen-1-one], the IC50 in assay [1] stood at 8.29 µM; in assay [2] it was 10.6 µM; against KRAS G12C, 4.25 µM.
As for `C=CC(=O)N1CC2(CCN(c3nc4c(c(-c5c(C)ccc6cnn(C)c56)n3)CCCC4)C2)C1` [Example 1-25, 1-(6-(4-(1,6-dimethyl-1H-indazol-7-yl)-5,6,7,8-tetrahydro-2-quinazolinyl)-2,6-diazaspiro[3.4]octan-2-yl)-2-propen-1-one], the concentration for half-maximal inhibition (IC50) in assay [1] was determined as 8.86 µM; in assay [2] it was 20.3 µM; against KRAS G12C it was 2.6 µM.
The like results for `C=CC(=O)N1CC2(CCN(c3nc4c(c(-c5cccc(C)c5C)n3)CCCC4)C2)C1` [Example 1-26, 1-(6-(4-(2,3-dimethylphenyl)-5,6,7,8-tetrahydro-2-quinazolinyl)-2,6-diazaspiro[3.4]octan-2-yl)-2-propen-1-one] were, in that order, 9.82 µM, 13.8 µM and 3.98 µM.
The like results for `C=CC(=O)N1CC2(CCN(c3nc4c(c(-c5cccc(C)c5Cl)n3)CCCC4)C2)C1` [Example 1-27, 1-(6-(4-(2-chloro-3-methylphenyl)-5,6,7,8-tetrahydro-2-quinazolinyl)-2,6-diazaspiro[3.4]octan-2-yl)-2-propen-1-one] were, in that order, 11.8 µM, 20.8 µM and 5.17 µM.
The like results for `C=CC(=O)N1CC2(CCN(c3nc(-c4cccc5cccc(C)c45)c4c(n3)N(C)CCO4)C2)C1` [Example 1-28, 1-(6-(8-methyl-4-(8-methyl-1-naphthalenyl)-7,8-dihydro-6H-pyrimido[5,4-b][1,4]oxazin-2-yl)-2,6-diazaspiro[3.4]octan-2-yl)-2-propen-1-one] were, in that order, 9.36 µM, 11.5 µM and 2.98 µM.
Take `C=CC(=O)N1CC2(CCN(c3nc4c(c(-c5cccc6cccc(C)c56)n3)CCC(C)(C)C4)C2)C1` [Example 1-30, 1-(6-(7,7-dimethyl-4-(8-methyl-1-naphthalenyl)-5,6,7,8-tetrahydro-2-quinazolinyl)-2,6-diazaspiro[3.4]octan-2-yl)-2-propen-1-one]: the IC50 was > 5 µM in assay [1], 10.3 µM in assay [2] and 3.46 µM against KRAS G12C.
